Assays:
Type in all cases: in vivo
[1] = system: Echinochloa crus-galli (L.) P. Beauv. var. formosensis Ohwi; assay: Test for Herbicidal Effect in Flooding Treatment (#1), ECHDG; conditions: for ECHDG #1 herbicidal effect (growth inhibition rating 0-5): flooding treatment #1; for ECHDG #1 herbicidal effect (growth inhibition grade): flooding treatment at seeding, dose 2 kg/ha, visual observation on day 21
Method: (§1) (#1) Test for Herbicidal Effect in Flooding Treatment: Styrol cups each having an opening diameter of 8 cm (about 52 cm^2) were respectively filled with soil (45 ml) which had been passed through a sieve (2 mm). Water (about 115 ml) was mixed with the soil such that the soil was flooded. After the soil stood still for 24 hours, Monochoria vaginalis, Echinochloa crus-galli (L.) P. Beauv. var. formosensis Ohwi, Cyperus difformis (umbrella sedge), and Scirpus juncoides were seeded. Each of the compounds of the present invention was dissolved in acetone, and the obtained product was then diluted with water containing Tween 80®. Each of the resultant chemical solutions was dropped on the entire surface of an associated one of treatment sections, so that each section was treated with 1 ml of the respective chemical solution (a dose of 2 kg/ha). After the treatment, the plants were grown in a glasshouse. On day 21, a survey was conducted on the herbicidal activity by visual observation, and evaluation was made according to the following criteria. 0: Growth inhibition effect is less than 10%. 1: Growth inhibition effect is equal to or greater than 10%, and less than 30%. 2; Growth inhibition effect is equal to or greater than 30%, and less than 50%. 3: Growth inhibition effect equal to or greater than 50%, and less than 70%. 4: Growth inhibition effect is equal to or greater than 70%, and less than 90%. 5: Growth inhibition effect is equal to or greater than 90%, or complete withering is achieved. ECHDG=Echinochloa crus-galli (L.) P. Beauv. var. formosensis Ohwi, MONVA=Monochoria vaginalis, SCIJU=Scirpus juncoides, CYMIC=Cyperus microiria.

[2] = system: Scirpus juncoides; assay: Test for Herbicidal Effect in Flooding Treatment (#1), SCIJU; conditions: for SCIJU #1 herbicidal effect (growth inhibition rating 0-5): flooding treatment #1; for SCIJU #1 herbicidal effect (growth inhibition grade): flooding treatment at seeding, dose 2 kg/ha, visual observation on day 21
Method: as §1

[3] = system: Echinochloa crus-galli (L.) P. Beauv. var. formosensis Ohwi; assay: Test for Herbicidal Effect in Flooding Treatment (#2), ECHDG at 2-2.5 leaf stage; conditions: for ECHDG (2-2.5L) #2 herbicidal effect (growth inhibition rating 0-5): flooding treatment #2, 2-2.5 leaf stage; for ECHDG (2-2.5L) #2 herbicidal effect (growth inhibition grade): flooding treatment at 2-2.5 leaf stage, dose 0.2 kg/ha, visual observation on day 21
Method: (#2) Test for Herbicidal Effect in Flooding Treatment: Styrol cups each having an opening diameter of 13 cm (about 130 cm^2) were respectively filled with muddy soil (500 ml). Water (about 300 ml) was mixed with the soil such that the soil was flooded. After the soil stood still for 24 hours, Echinochloa crus-galli (L.) P. Beauv. var. formosensis Ohwi was seeded. When the Echinochloa crus-galli (L.) P. Beauv. var. formosensis Ohwi grew to reach 2-2.5 leaf stage, chemical solutions were dropped on the entire surface of treatment sections, so that each section is treated with 1 ml of the respective chemical solution (a dose of 0.2 kg/ha). Each of the chemical solutions was prepared by dissolving associated one of the compounds of the present invention in acetone, followed by dilution with water containing Tween 80 g. After the treatment, the plants were grown in a glasshouse. On day 21, a survey was conducted on the herbicidal activity by visual observation, and evaluation was made according to the following criteria. 0: Growth inhibition effect is less than 10%. 1: Growth inhibition effect is equal to or greater than 10%, and less than 30%. 2; Growth inhibition effect is equal to or greater than 30%, and less than 50%. 3: Growth inhibition effect equal to or greater than 50%, and less than 70%. 4: Growth inhibition effect is equal to or greater than 70%, and less than 90%. 5: Growth inhibition effect is equal to or greater than 90%, or complete withering is achieved. ECHDG=Echinochloa crus-galli (L.) P. Beauv. var. formosensis Ohwi, MONVA=Monochoria vaginalis, SCIJU=Scirpus juncoides, CYMIC=Cyperus microiria. The herbicidal activity of the following comparative compounds A and B (the compounds disclosed Japanese Unexamined Patent Publication No. 2003-096059) were evaluated in a manner pursuant to Test Example 1. (#2).

[O-][S+](Cc1c(Cl)cccc1OC(F)F)c1ncc(Cl)s1 (stereo not drawn) [Compound 1B-4]
ECHDG #1 herbicidal effect (growth inhibition rating 0-5) [1]: 5 (Growth inhibition effect is equal to or greater than 90%, or complete withering is achieved)
SCIJU #1 herbicidal effect (growth inhibition rating 0-5) [2]: 5 (Growth inhibition effect is equal to or greater than 90%, or complete withering is achieved)
ECHDG (2-2.5L) #2 herbicidal effect (growth inhibition rating 0-5) [3]: 5 (Growth inhibition effect is equal to or greater than 90%, or complete withering is achieved)

[O-][S+](Cc1c(Cl)cccc1OC(F)(F)F)c1ncc(Cl)s1 (stereo not drawn) [Compound 1B-6]
ECHDG #1 herbicidal effect (growth inhibition rating 0-5) [1]: 5 (Growth inhibition effect is equal to or greater than 90%, or complete withering is achieved)
SCIJU #1 herbicidal effect (growth inhibition rating 0-5) [2]: 5 (Growth inhibition effect is equal to or greater than 90%, or complete withering is achieved)
ECHDG (2-2.5L) #2 herbicidal effect (growth inhibition rating 0-5) [3]: 5 (Growth inhibition effect is equal to or greater than 90%, or complete withering is achieved)

[O-][S+](Cc1c(F)cccc1OC(F)(F)F)c1ncc(Br)s1 (stereo not drawn) [Compound 1B-21]
ECHDG #1 herbicidal effect (growth inhibition rating 0-5) [1]: 5 (Growth inhibition effect is equal to or greater than 90%, or complete withering is achieved)
SCIJU #1 herbicidal effect (growth inhibition rating 0-5) [2]: 5 (Growth inhibition effect is equal to or greater than 90%, or complete withering is achieved)
ECHDG (2-2.5L) #2 herbicidal effect (growth inhibition rating 0-5) [3]: 5 (Growth inhibition effect is equal to or greater than 90%, or complete withering is achieved)

[O-][S+](Cc1ccccc1OC(F)F)c1ncc(Br)s1 (stereo not drawn) [Compound 1B-18]
ECHDG #1 herbicidal effect (growth inhibition rating 0-5) [1]: 5 (Growth inhibition effect is equal to or greater than 90%, or complete withering is achieved)
SCIJU #1 herbicidal effect (growth inhibition rating 0-5) [2]: 5 (Growth inhibition effect is equal to or greater than 90%, or complete withering is achieved)
ECHDG (2-2.5L) #2 herbicidal effect (growth inhibition rating 0-5) [3]: 5 (Growth inhibition effect is equal to or greater than 90%, or complete withering is achieved)

O=S(=O)(Cc1c(Cl)ccc(OC(F)F)c1F)c1ncc(Cl)s1 [Compound 1C-180]
ECHDG #1 herbicidal effect (growth inhibition grade) [1]: 5 (Growth inhibition effect is equal to or greater than 90%, or complete withering is achieved)
SCIJU #1 herbicidal effect (growth inhibition grade) [2]: 5 (Growth inhibition effect is equal to or greater than 90%, or complete withering is achieved)
ECHDG (2-2.5L) #2 herbicidal effect (growth inhibition grade) [3]: 5 (Growth inhibition effect is equal to or greater than 90%, or complete withering is achieved)

O=S(=O)(Cc1c(F)cccc1OC(F)(F)F)c1ncc(Cl)s1 [Compound 1C-48]
ECHDG #1 herbicidal effect (growth inhibition grade) [1]: 5 (Growth inhibition effect is equal to or greater than 90%, or complete withering is achieved)
SCIJU #1 herbicidal effect (growth inhibition grade) [2]: 5 (Growth inhibition effect is equal to or greater than 90%, or complete withering is achieved)
ECHDG (2-2.5L) #2 herbicidal effect (growth inhibition grade) [3]: 5 (Growth inhibition effect is equal to or greater than 90%, or complete withering is achieved)

CC(c1c(F)cccc1OC(F)F)S(=O)(=O)c1ncc(Cl)s1 (racemic) [Compound 1C-140]
ECHDG #1 herbicidal effect (growth inhibition grade) [1]: 5 (Growth inhibition effect is equal to or greater than 90%, or complete withering is achieved)
SCIJU #1 herbicidal effect (growth inhibition grade) [2]: 5 (Growth inhibition effect is equal to or greater than 90%, or complete withering is achieved)
ECHDG (2-2.5L) #2 herbicidal effect (growth inhibition grade) [3]: 5 (Growth inhibition effect is equal to or greater than 90%, or complete withering is achieved)

CCS(=O)(=O)c1cccc(F)c1CS(=O)(=O)c1ncc(Cl)s1 [Compound 1C-174]
ECHDG #1 herbicidal effect (growth inhibition grade) [1]: 5 (Growth inhibition effect is equal to or greater than 90%, or complete withering is achieved)
SCIJU #1 herbicidal effect (growth inhibition grade) [2]: 5 (Growth inhibition effect is equal to or greater than 90%, or complete withering is achieved)
ECHDG (2-2.5L) #2 herbicidal effect (growth inhibition grade) [3]: 4 (Growth inhibition effect is equal to or greater than 70%, and less than 90%)

O=S(=O)(Cc1c(Cl)cccc1OC(F)(F)F)c1ncc(Br)s1 [Compound 1C-159]
ECHDG #1 herbicidal effect (growth inhibition grade) [1]: 5 (Growth inhibition effect is equal to or greater than 90%, or complete withering is achieved)
SCIJU #1 herbicidal effect (growth inhibition grade) [2]: 5 (Growth inhibition effect is equal to or greater than 90%, or complete withering is achieved)
ECHDG (2-2.5L) #2 herbicidal effect (growth inhibition grade) [3]: 5 (Growth inhibition effect is equal to or greater than 90%, or complete withering is achieved)

CC(C)(c1c(F)cccc1OC(F)F)S(=O)(=O)c1ncc(Cl)s1 [Compound 1C-141]
ECHDG #1 herbicidal effect (growth inhibition grade) [1]: 5 (Growth inhibition effect is equal to or greater than 90%, or complete withering is achieved)
SCIJU #1 herbicidal effect (growth inhibition grade) [2]: 5 (Growth inhibition effect is equal to or greater than 90%, or complete withering is achieved)
ECHDG (2-2.5L) #2 herbicidal effect (growth inhibition grade) [3]: 4 (Growth inhibition effect is equal to or greater than 70%, and less than 90%)

O=S(=O)(Cc1c(F)cc(OC(F)F)cc1F)c1ncc(Cl)s1 [Compound 1C-176]
ECHDG #1 herbicidal effect (growth inhibition grade) [1]: 5 (Growth inhibition effect is equal to or greater than 90%, or complete withering is achieved)
SCIJU #1 herbicidal effect (growth inhibition grade) [2]: 5 (Growth inhibition effect is equal to or greater than 90%, or complete withering is achieved)
ECHDG (2-2.5L) #2 herbicidal effect (growth inhibition grade) [3]: 5 (Growth inhibition effect is equal to or greater than 90%, or complete withering is achieved)

O=S(=O)(Cc1c(Cl)cc(OC(F)F)cc1Cl)c1ncc(Cl)s1 [Compound 1C-175]
ECHDG #1 herbicidal effect (growth inhibition grade) [1]: 5 (Growth inhibition effect is equal to or greater than 90%, or complete withering is achieved)
SCIJU #1 herbicidal effect (growth inhibition grade) [2]: 5 (Growth inhibition effect is equal to or greater than 90%, or complete withering is achieved)
ECHDG (2-2.5L) #2 herbicidal effect (growth inhibition grade) [3]: 5 (Growth inhibition effect is equal to or greater than 90%, or complete withering is achieved)

O=S(=O)(Cc1ccccc1OC(F)(F)C(F)F)c1ncc(Cl)s1 [Compound 1C-57]
ECHDG #1 herbicidal effect (growth inhibition grade) [1]: 5 (Growth inhibition effect is equal to or greater than 90%, or complete withering is achieved)
SCIJU #1 herbicidal effect (growth inhibition grade) [2]: 5 (Growth inhibition effect is equal to or greater than 90%, or complete withering is achieved)
ECHDG (2-2.5L) #2 herbicidal effect (growth inhibition grade) [3]: 5 (Growth inhibition effect is equal to or greater than 90%, or complete withering is achieved)

O=S(=O)(Oc1cccc(F)c1C[S+]([O-])c1ncc(Cl)s1)C(F)(F)F (stereo not drawn) [Compound 1B-29]
ECHDG #1 herbicidal effect (growth inhibition rating 0-5) [1]: 5 (Growth inhibition effect is equal to or greater than 90%, or complete withering is achieved)
SCIJU #1 herbicidal effect (growth inhibition rating 0-5) [2]: 5 (Growth inhibition effect is equal to or greater than 90%, or complete withering is achieved)
ECHDG (2-2.5L) #2 herbicidal effect (growth inhibition rating 0-5) [3]: 5 (Growth inhibition effect is equal to or greater than 90%, or complete withering is achieved)

COc1cccc(Cl)c1CS(=O)(=O)c1ncc(Br)s1 [Compound 1C-151]
ECHDG #1 herbicidal effect (growth inhibition grade) [1]: 5 (Growth inhibition effect is equal to or greater than 90%, or complete withering is achieved)
SCIJU #1 herbicidal effect (growth inhibition grade) [2]: 5 (Growth inhibition effect is equal to or greater than 90%, or complete withering is achieved)
ECHDG (2-2.5L) #2 herbicidal effect (growth inhibition grade) [3]: 5 (Growth inhibition effect is equal to or greater than 90%, or complete withering is achieved)

O=S(=O)(Cc1c(F)cccc1OS(=O)(=O)C(F)(F)F)c1ncc(Cl)s1 [Compound 1C-185]
ECHDG #1 herbicidal effect (growth inhibition grade) [1]: 5 (Growth inhibition effect is equal to or greater than 90%, or complete withering is achieved)
SCIJU #1 herbicidal effect (growth inhibition grade) [2]: 5 (Growth inhibition effect is equal to or greater than 90%, or complete withering is achieved)
ECHDG (2-2.5L) #2 herbicidal effect (growth inhibition grade) [3]: 5 (Growth inhibition effect is equal to or greater than 90%, or complete withering is achieved)

Source: patent publication US20200060276A1, “THIAZOLE COMPOUND AND HERBICIDE” (OAT Agrio Co., Ltd., priority 2017, published 2020)
